Blank lines part the entries; values can stand above or below the molecule they belong to. {P} = phosphate
Tests used:
[1] = test system: Sp-C expression in embryonic mouse lungs; test: Sp-C (surfactant type C) expression in embryonic mouse lung explants (Q-RT-PCR); format: cell-based; settings: embryonic lung cultures (FIG. 10, FIG. 11)
Method: Surfactant production is a measure of lung maturity, and the inability to produce surfactant is the primary cause of adult and infant respiratory distress syndrome. The increase in surfactant type C production was assessed by measuring expression of Sp-C, which encodes a protein critical for the production of surfactant.
METHODS: E13.5 old embryonic mouse lungs were dissected. Explants were grown submerged in lung explant medium (DMEM based, additives optimized for the culture of mouse lungs) for 50 hrs. They were then processed for Q-RT-PCR. Briefly, total ribonucleic acid (RNA) is isolated from the tissue and subjected to reverse transcription to generate DNA. This DNA is amplified in a polymerase chain reaction using gene-specific primers as well as primers for the ubiquitously expressed housekeeping gene GAPDH. The two primer sets are labeled with different fluorophores, allowing for quantification of both signals in the same reaction tube in a real-time PCR machine (TaqMan). When calculating the expression level of Sp-C, the specific signal is normalized to the GAPDH signal, which serves as a measure of the total DNA used in the reaction.
Steroids are known to increase lung maturation and surfactant production in animals, including humans.

[2] = molecular target: Sonic hedgehog (Shh), functional hedgehog protein secreted by human cancer cell lines (human) (UniProt Q15465); test: cell-based or functional assay
UniProt Q15465, sequence (Q15465 24-197 limits assumed): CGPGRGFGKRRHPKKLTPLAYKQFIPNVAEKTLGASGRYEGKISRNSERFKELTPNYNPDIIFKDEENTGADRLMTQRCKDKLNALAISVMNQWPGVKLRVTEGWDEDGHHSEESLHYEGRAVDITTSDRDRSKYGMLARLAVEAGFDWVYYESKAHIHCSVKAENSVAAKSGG

Ihh (pcDNA3.1-hIhh) = test: siRNA specificity test, Ihh expression in transfected HEK-293 cells; format: cell-based, human; settings: pcDNA3.1-hIhh + 50 or 250 pmoles siRNA (FIG. 3)
Method: (§1) Next, the specificity of the inhibitory effects #1 Shh siRNA antagonist was tested against two other related Hh proteins, Ihh and Dhh. Specifically, the same HEK-293 cells were splited and seeded to a final density of about 14,000 cells/well in a 24-well tissue culture plate. The same Lipofectamine transfection as described above were carried out for each of the following combinations: • 0.4 μg of pcDNA3.1-hShh+0, 50, or 250 pmoles of siRNA #1; • 0.4 μg of pcDNA3.1-hIhh+0, 50, or 250 pmoles of siRNA #1; • 0.4 μg of pcDNA3.1-hDhh+0, 50, or 250 pmoles of siRNA #1; and, • 0.4 μg of pcDNA3.1-hShh+250 pmoles of siRNA #1 reverse strand only control.
(§2) After 2 hours of incubation with each of the complexes, the medium in each transfection well was replaced with 1 mL of fresh DMEM (no Pen./Strep.)+10% FBS, for the purpose of getting healthier cells at the end of the experiment. After 2 more days of incubation, all cells were fixed as described above, and stained with H-160 pan-Hh rabbit polyclonal antibody (Cat. No. sc-9024, Santa Cruz Biotechnology, CA) and Cy3-labeled anti-rabbit secondary antibody.

human Shh = test: siRNA inhibition of Shh expression in transfected HEK-293 cells (immunostaining); format: cell-based; settings: for inhibition of Shh expression: 0.4 μg phShh plasmid + 20, 100 or 500 pmole siRNA, about 68 hours, anti-Shh staining (FIG. 2)
Method: To test the effectiveness of the three siRNA antagonists, a confluent plate of HEK-293 cells were splited 1:3 and plated onto a 24-well tissue culture plate. The final density of cells was about 14,000 cells/well. Lipofectamine infection was carried out according to manufacturer's instruction. Specifically, 0.4 μg phShh^FL (a human Shh-encoding plasmid “pcDNA3.1-hShh”) and either 0, 20, 100, or 500 pmole of each annealed Shh siRNA antagonist were mixed in 25 μL of serum-free DMEM (no Pen./Strep.) with 4 μL of “Plus Reagent” for 15 minutes. At the same time, 1 μL of Lipofectamine was mixed in 25 μL of serum-free DMEM (no Pen./Strep.) with 4 μL of “Plus Reagent” for 15 minutes. At the end of the incubation, the two mixtures were combined to form complexes for 15 minutes. For each well of HEK-293 cells, the medium was changed to 200 μL of serum-free DMEM (no Pen./Strp.), and the formed complexes were then added to the respective test wells. After 3 hours of incubation at 37° C. in a 5% CO2 tissue culture incubator, 250 μL of DMEM (no Pen./Strep.) with 20% FBS were added to each well. The plate of cells were then returned to the incubator. After about 68 hours of incubation, cells in each well were fixed in 4% PFA/PAS, and stained with 1:200 dilution of rabbit anti-Shh antibody and Cy3-labeled anti-rabbit secondary antibody. […] Therefore, #1 siRNA was used for future experiments.
as §1, §2

Dhh (pcDNA3.1-hDhh) = test: siRNA specificity test, Dhh expression in transfected HEK-293 cells; format: cell-based, human; settings: pcDNA3.1-hDhh + 50 or 250 pmoles siRNA (FIG. 3)
Method: as §1, §2

Molecule: C[C@]12CCC(=O)C=C1CC[C@@H]1[C@@H]2[C@@H](O)C[C@@]2(C)[C@H]1CC[C@]2(O)C(=O)CO [hydrocortisone]
Sp-C expression [1]: increase in Sp-C expression

inhibition of luciferase expression in S12 cells (gli-Luc assay, S12/RT-4 co-cultures), IC50 [2]: 0.085 µg/mL | inhibition of luciferase expression in S12 cells (gli-Luc assay, S12/RT-4 co-cultures), IC90 [2]: 0.5 µg/mL
Molecule: Shh blocking antibody (5E1)

Molecule: siRNA #1: siRNA duplex against human Shh; sense 5′-P cga gau guc ugc ugc uag ucc (SEQ ID NO: 5), antisense SEQ ID NO: 6 (sense CGAGAUGUCUGCUGCUAGUCC; antisense ACUAGCAGCAGACAUCUCGCC; RNA, 5' {P}, backbone not given here)
inhibition of Ihh expression (Ihh (pcDNA3.1-hIhh)): did not obviously inhibit Ihh or Dhh expression | inhibition of Shh expression (human Shh): nearly completely inhibits Shh expression | specificity for Shh as compared to Ihh and Dhh (human Shh; 50 or 250 pmoles siRNA (FIG. 3)): very specific for Shh | inhibition of expression of human Shh (human Shh; pcDNA3.1-hShh + 50 pmoles siRNA, H-160 pan-Hh staining (FIG. 3)): almost completely inhibited expression of human Shh | inhibition of Dhh expression (Dhh (pcDNA3.1-hDhh)): did not obviously inhibit Ihh or Dhh expression

Molecule: siRNA #4: siRNA duplex against human Shh; sense 5′-P cag agu agc ccu aac cgc ucc (SEQ ID NO: 7), antisense SEQ ID NO: 8 (sense CAGAGUAGCCCUAACCGCUCC; antisense AGCGGUUAGGGCUACUCUGCC; RNA, 5' {P}, backbone not given here)
inhibition of Shh expression (human Shh): less pronounced

Molecule: siRNA #5: siRNA duplex against human Shh; sense 5′-P cgg uca agu cca gcu gaa gcc (SEQ ID NO: 9), antisense SEQ ID NO: 10 (sense CGGUCAAGUCCAGCUGAAGCC; antisense CUUCAGCUGGACUUGACCGCC; RNA, 5' {P}, backbone not given here)
inhibition of Shh expression (human Shh): slightly less effective than #1

Reference: US8802639B2, “RNA interference modulators of hedgehog signaling and uses thereof” (Curis, Inc., priority 2004, dated 2014)
